Assay results published in patent publication EP1557429A1, “Site-directed coupling of proteins” (Vectron Therapeutics AG, priority 2004, dated 2005).

System: A431 cells
Assay: Binding of FITC-labeled EGFm1 to A431 cells, flow cytometry
Format: cell-based
Method: • Fig. 1: Schematic representation of the strategy to isolate side-chain deaminated ligands (A) or side-chain decarboxylated ligands (B). Randomization in approach A is performed by using sets of amino acids (X) devoid of lysines or lysines and arginines. Randomization in approach B is performed by using sets of amino acids (X) devoid of aspartic acids (Asp) and glutamic acids (Glu). • Fig. 2: Schematic representation of the strategy of side-chain elimination/addition (A) or side-chain group reduction (B), both examplified for elimination or reduction of cysteine residues. In these examples randomization is performed by using sets of amino acids (X) devoid of cysteines (Cys). Both approaches can be applied equally for any other amino acid residues. • Fig. 3: Amino acid sequences of EGF of various species. The positions of lysine and arginine residues is highlighted by grey boxes. • Fig. 4: (A) IMAC purification of recombinant HisEGFm1 from bacterial periplasm. Eluted fractions were analyzed on a 20% SDS-Tricine gel (HisEGFm1 is indicated by an arrowhead). Recombinant human EGF was included as control. (B) Size exclusion chromatography of purified EGFwt and HisEGFm1 on a superose 12 column. The positions of BSA (67 kDa), Ovalbumin (43 kDa) and Myoglobin (17 kDa) are indicated by arrows. (C) Competition of binding of fdEGF to A431 by EGFwt or HisEGFm1. • Fig. 5: Binding of FITC-labeled EGFm1 to A431. A) FITC-labeled HisEGFm1 was incubated with A431 at varying concentrations and binding was analyzed by flow cytometry (0, cells without EGFm1; 1, 17 ng/ml; 2 50 ng/ml; 3, 170 ng/ml). B) Competition of FITC-labeled EGFm1 at 170 ng/ml without (1) or with (2) excess amounts of unlabelled EGFwt. C) Control experiments with BSA. • Fig. 6: (A) Binding of EGFm1 liposomes to A431 cells.
EGFwt or EGFm1 (50 µg) were diluted to a conc. of 500 µg/ml and the pH was adjusted to 9.0 with carbonate buffer pH 9.5. FITC was added at a 10-fold molar excess and incubated overnight at 4°C. […] Fluorescence intensity was determined using a fluorescence spectrophotometer (Victor^2; Wallac, Freiburg, Germany). […]

With “Fluorescein-labeled EGFm1: EGFm1 labeled with fluorescein-isothiocyanate at the N-terminal amino group (NSDSECPLSHDGYCLHDGVCMYIEALDQYACNCVVGYIGERCQYSDLSWWELS; not fully specified; left off: small tags and cut ends)” the “competition of binding to A431” value (excess amounts of unlabeled EGFwt, BSA as control) was “could be competed with excess amounts of unlabeled EGFwt but not with BSA”, the “binding to A431 reached saturation at” value (fluorescein-labeled protein, flow cytometry) was “approximately 50 ng/ml” and the “binding to A431 cells” value (fluorescein-labeled protein, varying concentrations) was “strong and concentration-dependent binding”.
